Laboratory results: PMC11442134, “The phytopathogen Xanthomonas campestris senses and effluxes salicylic acid via a sensor HepR and an RND family efflux pump to promote virulence in host plants” (mLife, 2024)

Columns and labels:
HepR = target: T1, HepR (Xanthomonas campestris, UniProt Q8P3A9); assay: ITC with purified His-HepR (Kd […]); confirmed by SPR (Kd […]); SA inhibits HepR–Phep binding in EMSA
T1 construct: gene slyA; 147-amino acid protein, His-tagged HepR (pET28a), dimer

[1] = target: HepR (MarR family transcription factor, Xcc4167) (Xanthomonas campestris pv. campestris (strain XC1)); assay: SEC; FPLC gel filtration of Ni-NTA purified His-tagged HepR on Superdex 75; 25 mM HEPES, 150 mM NaCl, pH 7.4

Compound | Kd (HepR) | stoichiometry N [1]
O=C(O)c1ccccc1O [SA, Salicylic acid] | 19.3 µM | 
HepR (MarR family transcription factor, Xcc4167) (natural protein) |  | 2
